Key:
ISC-enriched organoids [1] = experiment: Primary screen, 384-well 2.5-D organoid differentiation (ENR+CD, 6 days): basal lysozyme secretion (LYZ.NS); type: cell-based, murine; conditions: for Dose.FC.LYZ.NS: ENR+CD, 6 days, FC vs plate median; for Z.LYZ.NS: standard z score of FC
Excerpt: (§1) High-throughput screening.

ISC-enriched organoids [2] = experiment: Primary screen, 384-well 2.5-D organoid differentiation (ENR+CD, 6 days): carbachol-induced lysozyme secretion (LYZ.S); type: cell-based, murine; conditions: ENR+CD, 6 days, FC vs plate median
Excerpt: as §1

ISC-enriched organoids [3] = experiment: Primary screen, 384-well 2.5-D organoid differentiation (ENR+CD, 6 days, Target Selective Inhibitor Library, vs whole-plate median): ATP (CellTiter-Glo 3D, CTG); conditions: for Dose.FC.CTG: ENR+CD, 6 days, FC vs plate median; for Z.CTG: standard z score of FC

Structure (SMILES)	Dose.FC.LYZ.NS (ISC-enriched organoids [1]; Dose 0.08 uM) [log 2 fold change]	Z.LYZ.NS (ISC-enriched organoids [1]; Dose 0.08 uM)	Dose.FC.LYZ.NS (ISC-enriched organoids [1]; Dose 0.40 uM) [log 2 fold change]	Z.LYZ.NS (ISC-enriched organoids [1]; Dose 0.40 uM)	Dose.FC.LYZ.NS (ISC-enriched organoids [1]; Dose 2.00 uM) [log 2 fold change]	Z.LYZ.NS (ISC-enriched organoids [1]; Dose 2.00 uM)	Dose.FC.LYZ.NS (ISC-enriched organoids [1]; Dose 10.00 uM) [log 2 fold change]	Z.LYZ.NS (ISC-enriched organoids [1]; Dose 10.00 uM)	Dose.FC.LYZ.S (ISC-enriched organoids [2]; Dose 0.08 uM) [log 2 fold change]	Dose.FC.LYZ.S (ISC-enriched organoids [2]; Dose 0.40 uM) [log 2 fold change]	Dose.FC.LYZ.S (ISC-enriched organoids [2]; Dose 2.00 uM) [log 2 fold change]	Dose.FC.LYZ.S (ISC-enriched organoids [2]; Dose 10.00 uM) [log 2 fold change]	Dose.FC.CTG (ISC-enriched organoids [3]; Dose 0.08 uM) [log 2 fold change]	Z.CTG (ISC-enriched organoids [3]; Dose 0.08 uM)	Dose.FC.CTG (ISC-enriched organoids [3]; Dose 0.40 uM) [log 2 fold change]	Z.CTG (ISC-enriched organoids [3]; Dose 0.40 uM)	Dose.FC.CTG (ISC-enriched organoids [3]; Dose 2.00 uM) [log 2 fold change]	Z.CTG (ISC-enriched organoids [3]; Dose 2.00 uM)	Dose.FC.CTG (ISC-enriched organoids [3]; Dose 10.00 uM) [log 2 fold change]	Z.CTG (ISC-enriched organoids [3]; Dose 10.00 uM)
C[C@]12C=CC(=O)N[C@@H]1CC[C@@H]1[C@@H]2CC[C@]2(C)[C@@H](C(=O)Nc3cc(C(F)(F)F)ccc3C(F)(F)F)CC[C@@H]12 [Dutasteride]	0.065	0.568	0.006	0.052	−0.105	−0.915	−0.092	−0.799	0.001	−0.054	−0.074	−0.151	0.057	0.137	−0.266	−0.636	−0.098	−0.234	−0.057	−0.137
CCn1c2ccccc2c2cc(Nc3ccnc(NCCCN4CCOCC4)n3)ccc21 [EHop-016]	0.177	1.537	0.035	0.302	0.029	0.252	−0.203	−1.769	0.091	0.012	−0.011	−0.299	0.081	0.193	0.062	0.147	0.088	0.211	−0.757	−1.808
COc1cccc(C=NCCN=Cc2cccc(OC)c2[O-])c1[O-].[Cl-].[Mn+3] [EUK 134]	0.068	0.594	0.003	0.026	0.028	0.247	−0.085	−0.741	0.025	0.057	−0.034	−0.132	−0.015	−0.035	−0.162	−0.387	0.091	0.217	−0.024	−0.057
NC(=O)C1CCCc2c1[nH]c1ccc(Cl)cc21 (centres unmarked) [EX 527 (Selisistat)]	0.100	0.871	0.059	0.512	0.030	0.261	0.057	0.494	0.062	0.047	−0.051	−0.011	0.240	0.574	0.174	0.415	0.341	0.814	0.320	0.766
COc1cc2c(cc1Cc1cccc(Cl)c1F)c(=O)c(C(=O)O)cn2[C@H](CO)C(C)C [Elvitegravir (GS-9137, JTK-303)]	−0.047	−0.412	−0.069	−0.598	−0.094	−0.821	−0.090	−0.782	−0.010	0.092	−0.126	−0.135	−0.001	−0.001	−0.040	−0.095	−0.344	−0.823	−0.737	−1.760
OC[C@H]1O[C@@H](c2ccc(Cl)c(Cc3ccc(O[C@H]4CCOC4)cc3)c2)[C@H](O)[C@@H](O)[C@@H]1O [Empagliflozin (BI 10773)]	−0.006	−0.052	−0.034	−0.294	−0.009	−0.081	0.017	0.144	−0.051	−0.055	−0.103	−0.022	−0.296	−0.707	−0.075	−0.178	−0.192	−0.458	−0.134	−0.320
C[C@H](N[C@@H](CCc1ccccc1)C(=O)O)C(=O)N1CCC[C@H]1C(=O)O.O.O [Enalaprilat Dihydrate]	0.003	0.027	−0.003	−0.030	−0.022	−0.195	−0.157	−1.364	−0.001	0.111	−0.095	−0.281	−0.190	−0.454	−0.124	−0.296	−0.331	−0.791	−0.979	−2.338
CNC(=O)c1ccc(N2C(=S)N(c3ccc(C#N)c(C(F)(F)F)c3)C(=O)C2(C)C)cc1F [Enzalutamide (MDV3100)]	0.162	1.411	0.166	1.446	0.024	0.210	0.094	0.820	0.176	0.276	0.077	0.076	0.195	0.465	0.256	0.611	0.076	0.181	0.146	0.348
Cn1cc(C2=C(c3cn(C4CCN(Cc5ccccn5)CC4)c4ccccc34)C(=O)NC2=O)c2ccccc21 [Enzastaurin (LY317615)]	0.085	0.744	0.131	1.143	0.053	0.458	−0.116	−1.012	0.109	0.251	0.053	−0.226	0.236	0.565	0.475	1.135	0.251	0.600	−0.081	−0.194
CCOC(=O)c1cncn1[C@H](C)c1ccccc1 [Etomidate]	−0.008	−0.065	0.037	0.318	0.015	0.131	−0.001	−0.010	0.053	0.048	0.054	−0.008	0.084	0.201	0.006	0.014	0.163	0.389	0.039	0.094

— US20230398130A1, “METHODS AND COMPOSITIONS FOR DIFFERENTIATING STEM CELLS” (Massachusetts Institute of Technology, priority 2020, published 2023)
